Assay results: patent US20070128217A1 (priority 2003, published 2007)

Experiments:
[1] = tested on: recombinant human anti-SARS-CoV antibody 03-018; format: binding; set-up: Binding of antibody 03-018 to linear peptides of the N protein of SARS-CoV Urbani / Binding of antibody 03-018 to looped/cyclic peptides of the N protein of SARS-CoV Urbani: unit not given here
[2] = tested on: control sera (pooled serum of ten healthy LUMC hospital workers; commercial negative donor pooled serum from the Dutch bloodbank); format: binding, human; set-up: Binding of Control serum LUMC to linear peptides / Binding of Control serum Blood-bank to linear peptides / Binding of Control serum LUMC to looped peptides / Binding of Control Serum Blood-Bank to Looped peptides / Binding of Control serum LUMC to linear peptides of the protein M of SARS-CoV Urbani / Binding of Control serum Blood-bank to linear peptides of the protein M of SARS-CoV Urbani / Binding of Control serum LUMC to looped peptides of the protein M of SARS-CoV Urbani / Binding of Control Serum Blood-Bank to Looped peptides of the protein M of SARS-CoV Urbani: unit not given here
[3] = tested on: antibodies in sera from SARS patients (sera 1a, 1b, 2, 6, 37, 62, London, SARS-yellow, SARS-green); format: binding, human; set-up: Binding of serum 6 to linear peptides of protein X1 of SARS-CoV Urbani / Binding of serum 37 to linear peptides of protein X1 of SARS-CoV Urbani / Binding of serum 6 to looped/cyclic peptide (PEPSCAN-ELISA) / Binding of serum 37 to looped/cyclic peptide (PEPSCAN-ELISA) / Binding of serum 37 to looped/cyclic peptides of protein X1 of SARS-CoV Urbani / Binding of serum 6 to linear peptides of protein X2 / Binding of serum 37 to linear peptides of protein X2 / Binding of serum 37 to looped/cyclic peptides of protein X2 of SARS-CoV Urbani / Binding of serum 6 to linear peptides of protein M of SARS-CoV Urbani / Binding of serum 37 to linear peptides of protein M of SARS-CoV Urbani / Binding of serum 6 to looped/cyclic peptides of protein M of SARS-CoV Urbani / Binding of serum 37 to looped/cyclic peptides of protein M of SARS-CoV Urbani / Binding of serum 6 to linear peptides of protein X3 of SARS-CoV Urbani / Binding of serum 37 to linear peptides of protein X3 of SARS-CoV Urbani / Binding of serum 37 to looped/cyclic peptides of protein X3 of SARS-CoV Urbani / Binding of serum 6 to linear peptides of protein X4 of SARS-CoV Urbani / Binding of serum 37 to linear peptides of protein X4 of SARS-CoV Urbani / Binding of serum 37 to looped/cyclic peptides of protein X4 of SARS-CoV Urbani / Binding of serum 6 to linear peptides of protein X5 of SARS-CoV Urbani / Binding of serum 37 to linear peptides of protein X5 of SARS-CoV Urbani / Binding of serum 37 to looped/cyclic peptides of protein X5 of SARS-CoV Urbani / Binding of serum 6 to linear peptides of protein N of SARS-CoV Urbani / Binding of serum 37 to linear peptides of protein N of SARS-CoV Urbani / Binding of serum 6 to linear peptide (PEPSCAN-ELISA) / Binding of serum 1a to looped/cyclic peptides of protein N of SARS-CoV Urbani / Binding of serum 1b to looped/cyclic peptides of protein N of SARS-CoV Urbani / Binding of serum 2 to looped/cyclic peptides of protein N of SARS-CoV Urbani / Binding of serum 6 to looped/cyclic peptides of protein N of SARS-CoV Urbani / Binding of serum 37 to looped/cyclic peptides of protein N of SARS-CoV Urbani / Binding of serum 62 to looped/cyclic peptides of protein N of SARS-CoV Urbani / Binding of serum London to looped/cyclic peptides of protein N of SARS-CoV Urbani / Binding of serum SARS-green to looped/cyclic peptides of protein N of SARS-CoV Urbani: unit not given here
[4] = tested on: rabbit serum obtained by immunizing a rabbit with the SARS-CoV strain Frankfurt 1; format: binding; set-up: Binding of a rabbit serum to linear peptides / Binding of a rabbit serum to looped peptides / Rabbit serum linear peptides / Rabbit serum looped peptides / Binding of a rabbit serum to linear peptides of protein N of SARS-CoV Urbani (Rabbit serum linear peptides) / Binding of a rabbit serum to looped/cyclic peptides of protein N of SARS-CoV Urbani (Rabbit serum looped peptides): unit not given here

Sequence: ALLLLDRLNQLESKV
- Binding of antibody 03-018 to linear peptides of the N protein of SARS-CoV Urbani [1]: 0.1
- Binding of antibody 03-018 to looped/cyclic peptides of the N protein of SARS-CoV Urbani [1]: 0.3
- Binding of Control Serum Blood-Bank to Looped peptides [2]: 0.8
- Binding of Control serum Blood-bank to linear peptides [2]: 0.8
- Binding of Control serum LUMC to linear peptides [2]: 0.7
- Binding of Control serum LUMC to looped peptides [2]: 0.8
- Binding of serum 1a to linear peptide (PEPSCAN-ELISA) [3]: 0.2
- Binding of serum 1a to looped/cyclic peptides of protein N of SARS-CoV Urbani [3]: 0.4
- Binding of serum 1b to linear peptide (PEPSCAN-ELISA) [3]: 0.1
- Binding of serum 1b to looped/cyclic peptides of protein N of SARS-CoV Urbani [3]: 0.3
- Binding of serum 2 to linear peptide (PEPSCAN-ELISA) [3]: 0.2
- Binding of serum 2 to looped/cyclic peptides of protein N of SARS-CoV Urbani [3]: 0.5
- Binding of serum 6 to linear peptide (PEPSCAN-ELISA) [3]: 0.1
- Binding of serum 6 to looped/cyclic peptides of protein N of SARS-CoV Urbani [3]: 0.3
- Binding of serum 37 to linear peptide (PEPSCAN-ELISA) [3]: 0.7
- Binding of serum 37 to looped/cyclic peptides of protein N of SARS-CoV Urbani [3]: 1.0
- Binding of serum 62 to linear peptide (PEPSCAN-ELISA) [3]: 0.4
- Binding of serum 62 to looped/cyclic peptides of protein N of SARS-CoV Urbani [3]: 0.9
- Binding of serum London to linear peptide (PEPSCAN-ELISA) [3]: 0.6
- Binding of serum London to looped/cyclic peptides of protein N of SARS-CoV Urbani [3]: 0.5
- Binding of serum SARS-green to linear peptide (PEPSCAN-ELISA) [3]: 0.2
- Binding of serum SARS-green to looped/cyclic peptides of protein N of SARS-CoV Urbani [3]: 0.7
- Binding of serum SARS-yellow to linear peptide (PEPSCAN-ELISA) [3]: 0.5
- Binding of serum SARS-yellow to looped/cyclic peptides of protein N of SARS-CoV Urbani [3]: 0.5
- Binding of a rabbit serum to linear peptides of protein N of SARS-CoV Urbani (Rabbit serum linear peptides) [4]: 0.1
- Binding of a rabbit serum to looped/cyclic peptides of protein N of SARS-CoV Urbani (Rabbit serum looped peptides) [4]: 0.4

Sequence: ALNTPKDHIGTRNPN
- Binding of antibody 03-018 to linear peptides of the N protein of SARS-CoV Urbani [1]: 0.1
- Binding of antibody 03-018 to looped/cyclic peptides of the N protein of SARS-CoV Urbani [1]: 0.2
- Binding of Control Serum Blood-Bank to Looped peptides [2]: 0.5
- Binding of Control serum Blood-bank to linear peptides [2]: 0.8
- Binding of Control serum LUMC to linear peptides [2]: 0.6
- Binding of Control serum LUMC to looped peptides [2]: 0.4
- Binding of serum 1a to linear peptides of protein N of SARS-CoV Urbani [3]: 0.3
- Binding of serum 1a to looped/cyclic peptides of protein N of SARS-CoV Urbani [3]: 0.4
- Binding of serum 1b to linear peptides of protein N of SARS-CoV Urbani [3]: 0.1
- Binding of serum 1b to looped/cyclic peptides of protein N of SARS-CoV Urbani [3]: 0.3
- Binding of serum 2 to linear peptides of protein N of SARS-CoV Urbani [3]: 0.3
- Binding of serum 2 to looped/cyclic peptides of protein N of SARS-CoV Urbani [3]: 0.5
- Binding of serum 6 to linear peptides of protein N of SARS-CoV Urbani [3]: 0.2
- Binding of serum 6 to looped/cyclic peptides of protein N of SARS-CoV Urbani [3]: 0.3
- Binding of serum 37 to linear peptides of protein N of SARS-CoV Urbani [3]: 0.7
- Binding of serum 37 to looped/cyclic peptides of protein N of SARS-CoV Urbani [3]: 0.5
- Binding of serum 62 to linear peptides of protein N of SARS-CoV Urbani [3]: 0.6
- Binding of serum 62 to looped/cyclic peptides of protein N of SARS-CoV Urbani [3]: 0.5
- Binding of serum London to linear peptides of protein N of SARS-CoV Urbani [3]: 0.5
- Binding of serum London to looped/cyclic peptides of protein N of SARS-CoV Urbani [3]: 0.3
- Binding of serum SARS-green to linear peptides of protein N of SARS-CoV Urbani [3]: 0.4
- Binding of serum SARS-green to looped/cyclic peptides of protein N of SARS-CoV Urbani [3]: 0.5
- Binding of serum SARS-yellow to linear peptides of protein N of SARS-CoV Urbani [3]: 0.5
- Binding of serum SARS-yellow to looped/cyclic peptides of protein N of SARS-CoV Urbani [3]: 0.0
- Binding of a rabbit serum to linear peptides of protein N of SARS-CoV Urbani (Rabbit serum linear peptides) [4]: 0.2
- Binding of a rabbit serum to looped/cyclic peptides of protein N of SARS-CoV Urbani (Rabbit serum looped peptides) [4]: 0.2

Sequence: ALTQHGKEELRFPRG
- Binding of antibody 03-018 to linear peptides of the N protein of SARS-CoV Urbani [1]: 0.2
- Binding of antibody 03-018 to looped/cyclic peptides of the N protein of SARS-CoV Urbani [1]: 0.2
- Binding of Control Serum Blood-Bank to Looped peptides [2]: 0.4
- Binding of Control serum Blood-bank to linear peptides [2]: 0.9
- Binding of Control serum LUMC to linear peptides [2]: 0.7
- Binding of Control serum LUMC to looped peptides [2]: 0.4
- Binding of serum 1a to linear peptides of protein N of SARS-CoV Urbani [3]: 0.3
- Binding of serum 1a to looped/cyclic peptides of protein N of SARS-CoV Urbani [3]: 0.2
- Binding of serum 1b to linear peptides of protein N of SARS-CoV Urbani [3]: 0.2
- Binding of serum 1b to looped/cyclic peptides of protein N of SARS-CoV Urbani [3]: 0.1
- Binding of serum 2 to linear peptides of protein N of SARS-CoV Urbani [3]: 0.3
- Binding of serum 2 to looped/cyclic peptides of protein N of SARS-CoV Urbani [3]: 0.2
- Binding of serum 6 to linear peptides of protein N of SARS-CoV Urbani [3]: 0.2
- Binding of serum 6 to looped/cyclic peptides of protein N of SARS-CoV Urbani [3]: 0.1
- Binding of serum 37 to linear peptides of protein N of SARS-CoV Urbani [3]: 0.9
- Binding of serum 37 to looped/cyclic peptides of protein N of SARS-CoV Urbani [3]: 0.5
- Binding of serum 62 to linear peptides of protein N of SARS-CoV Urbani [3]: 0.8
- Binding of serum 62 to looped/cyclic peptides of protein N of SARS-CoV Urbani [3]: 0.2
- Binding of serum London to linear peptides of protein N of SARS-CoV Urbani [3]: 0.5
- Binding of serum London to looped/cyclic peptides of protein N of SARS-CoV Urbani [3]: 0.3
- Binding of serum SARS-green to linear peptides of protein N of SARS-CoV Urbani [3]: 0.6
- Binding of serum SARS-green to looped/cyclic peptides of protein N of SARS-CoV Urbani [3]: 0.1
- Binding of serum SARS-yellow to linear peptides of protein N of SARS-CoV Urbani [3]: 0.6
- Binding of serum SARS-yellow to looped/cyclic peptides of protein N of SARS-CoV Urbani [3]: 0.3
- Binding of a rabbit serum to linear peptides of protein N of SARS-CoV Urbani (Rabbit serum linear peptides) [4]: 0.2
- Binding of a rabbit serum to looped/cyclic peptides of protein N of SARS-CoV Urbani (Rabbit serum looped peptides) [4]: 0.3
